Tests used:
skin [1] = assay: Preparatory pinprick test of skin anesthesia effect, 3% absorption promoter and 2% lidocaine aqueous gel-ointment; assay type: in vivo, healthy adult (human); conditions: for time at which effect of the skin anesthesia began / time of complete skin anesthesia: after application, 3% promoter + 2% lidocaine; for skin anesthesia effect, in words: pinprick, up to 4 hours after application
Description: Same as that in the experimental example 1.
A preparatory experiment was carried out to verify the skin anesthesia effect of various lidocaine aqueous gel-ointments when they are applied in the quantity of 0.3 g/4 cm^2.
Pinprick test was carried out to compare results utilizing lidocaine aqueous gel-ointment which was prepared by mixing the ointments d-h, Xylocaine Jelly (Trademark registered, containing 2% lidocaine, made by Fujisawa Pharmaceutical Co., Ltd.), Azone, a known percutaneous absorption promoter, sodium caprate (to be indicated as Cap Na hereinafter) and isopropyl myristate (to be indicated as IPM hereinafter).
The skin over which various ointments were applied was pierced several times using a 26 gauge intradermal needle at the time of 1, 1.5, 2, 3 and 4 hours after the application, and the degree of pain felt by the adult was evaluated according to a criterion given below.
++ No pain felt at the area where the ointment was applied.
+ Pain felt at some portions.
- Pain felt at that area.

[2] = Acute toxic examination (LD50), oral, rat; conditions: in vivo
Description: The results of acute toxic examination (LD50) which was carried out with the rat through the oral dose of the compound were follows.

[3] = Lidocaine blood concentration after application of ointment to the rat abdomen (fluorescence polarization immunoassay); assay type: in vivo, Wistar rat
Source text: (1) Experimental Animal Wistar rat a. Aqueous gel ointment containing 2% of lidocaine. b. Aqueous gel ointment containing 10% of lidocaine. c. Aqueous gel ointment in (b) containing 3% of compound 4. e. Aqueous gel ointment in (a) containing 3% of compound 4. […] Group with an ointment a applied. Group with an ointment e applied. […] Group with an ointment c applied. Group with 3% Azone (Trademark registered)--10% lidocaine aqueous gel-ointment applied. […] In these groups, the rats had their body portion covered with a polyethylene food wrapping sheet at an area where an ointment was applied, and sealed by means of transparent tape. Then, a blood was withdrawn through a cannula which had been inserted into the carotid. The blood was pretreated with a heparin and separated by means of centrifugal separator to obtain blood plasma. A fluorescence polarization immunoassay was used to determine the concentration of the lidocaine in the blood.

skin [4] = assay: Double-blind pinprick procedure pain score at the vein puncture area in patients; assay type: in vivo, patient (human); conditions: ointment c versus ointment b, p<0.05
Description: A patient who was to receive an operation.
The sponge was applied over an area in which the vein is punctured in accordance with a double-blind assay method. The area was sealed off with a transparent tape, and the topical reaction and the painless effect occurring on the skin were compared about 1 hour later.
The following pain score was employed as a criterion.
When the pain score was zero, the needle was pierced into the skin about 1.0 mm deep to verify the pain.

Row | Structure (SMILES) | time at which effect of the skin anesthesia began (skin [1]) [h] | time of complete skin anesthesia (skin [1]) [h] | LD50 [2] [mg/kg] | skin anesthesia effect, in words (skin [1]) | absorption promoting effect (lidocaine blood concentration) ([3]; rat, in vivo) | effect in removing the pain of the skin, in words (skin [4]) | lidocaine blood concentration ([3]; 2% lidocaine ointments (groups 1 and 2), with or without 3% compound 4) | absorption promoting effect (lidocaine blood concentration) ([3]; 10% lidocaine aqueous gel ointment (groups 3-5), 3% promoter, up to five hours)
1 | CC1(C)[C@@H](OC(=O)CCC(=O)O)CC[C@]2(C)[C@H]3C(=O)C=C4[C@@H]5C[C@@](C)(C(=O)O)CC[C@]5(C)CC[C@@]4(C)[C@]3(C)CC[C@@H]12 [Compound 3, Glycyrrhetic acid 3β-monohemisuccinate] | 1.5 | 2 | 520 | – | – | – | – | –
2 | CC1(C)[C@@H](OC(=O)c2ccccc2C(=O)O)CC[C@]2(C)[C@H]3C=CC4=C5C[C@@](C)(COC(=O)c6ccccc6C(=O)O)CC[C@]5(C)CC[C@@]4(C)[C@]3(C)CC[C@@H]12 [Compound 7, Olean-11,13(18)-diene-3 β, 30-diol-3 β, 30-dihemiphthalate] | 1.5 | 2 | 628 to 793 | – | – | – | – | –
3 | CC1(C)[C@@H](OC(=O)c2ccccc2C(=O)O)CC[C@]2(C)[C@H]3CC=C4[C@@H]5C[C@@](C)(COC(=O)c6ccccc6C(=O)O)CC[C@]5(C)CC[C@@]4(C)[C@]3(C)CC[C@@H]12 [Compound 5, 18β-olean-12-ene-3 β, 30-diol-3 β, 30-dihemiphthalate] | – | – | 1260 to 1520 | skin anesthesia effect substantially equal to that by Azone | – | – | – | –
4 | CC1(C)[C@@H](OC(=O)c2ccccc2C(=O)O)CC[C@]2(C)C3=CC=C4[C@@H]5C[C@@](C)(COC(=O)c6ccccc6C(=O)O)CC[C@]5(C)CC[C@@]4(C)[C@]3(C)CC[C@@H]12 [Compound 6, 18β-olean-9(11), 12-diene-3 β, 30-diol-3 β, 30-dihemiphthalate] | – | – | 1280 to 1500 | skin anesthesia effect substantially equal to that by Azone | – | – | – | –
5 | CCCCCCCCCCCCN1CCCCCC1=O [Azone, reference compound] | – | – | – | – | no major effect of improving absorption was found | – | – | –
6 | CC1(C)[C@@H](OC(=O)c2ccccc2C(=O)O)CC[C@]2(C)[C@H]3C(=O)C=C4[C@@H]5C[C@@](C)(C(=O)O)CC[C@]5(C)CC[C@@]4(C)[C@]3(C)CC[C@@H]12 [Compound 4, Glycyrrhetic acid 3β-monohemiphthalate] | 1.5 | 2 | 1320 | – | – | effective in removing the pain of the skin | any significant result was not observed | an absorption promoting effect of the compound 4 was acknowledged

Reference: patent US5622942A, “Percutaneous absorptive anesthetic” (priority 1993, dated 1997)
